Consider 3 compounds from patent US20180214400A1, “THE USE OF KAURANES COMPOUNDS IN THE MANUFACTURE OF MEDICAMENT FOR TREATMENT OF CADIAC HYPERTROPY AND PULMONARY HYPERTENSION” (KEY-PHARMA BIOMEDICAL INC., priority 2015, published 2018).

The conditions of data set [1]: large amount, certain condition in vitro; cited from earlier work.
Data set [2] relates to acute ischemia-reperfusion heart injuries. Conditions: cited from earlier work.
The subject of data set [3] is cGMP. Briefly: cGMP ELISA in neonatal rat fibroblasts. In kind it is cell-based. Conditions: 3 h. As to the method: Neonatal rat cardiac fibroblasts were isolated from 1-2-day-old Sprague-Dawley rats as described previously. Briefly, hearts from newborn 1-2-day-old Sprague-Dawley rats were minced on ice, and cells were isolated by trypsin incubation at 37° C. Non-cardiomyocytes were separated from the cardiomyocytes by differential pre-plating, and then cardiomyocytes were removed with fibroblasts seeded in culture dishes. The cells were passaged after 3 days, using a 0.05% trypsin solution. Cells were cultured in DEME/F12 medium with 5% fetal calf serum, and maintained at 37° C., 5% CO2 condition. cGMP levels in the neonatal rat fibroblasts after treated with vehicle or compound A or sildenafil were measured with an ELISA kit following the manufacture's instruction. Quiescent cells were cultured with different doses of compound A ([…]) or sildenafil ([…]) for 3 h. After treatment, the cells were lysed with 0.1N HCl, and performed cGMP ELISA assay.
(In general: ELISA stands for enzyme-linked immunosorbent assay.)

Data set [4] relates to Diabetic cardiomyopathy (DCM) rats. Briefly: Streptozotocin-induced diabetic cardiomyopathy. Format: in vivo, Wistar rats. Conditions: STZ diabetes, 12-16 weeks; for cardiac function comparing to group B: pressure-volume system. As to the method: Diabetic cardiomyopathy (DCM) Diabetic induced injury to the myocardium. DCM, induced by streptozotocin (STZ), along with the associated changes occurring in inflammation, oxidative stress and fibrosis markers. Wistar rats were randomly divided into four groups: group A (Normal control), group B (Diabetes), group […] group D (DM/TMZ, trimetazidine treatment). After 12-16 weeks, left ventricular function was measured by the pressure-volume system. Cardiac tissues were prepared for histological study by hematoxlyin and eosin, Sirius red staining as well as for assays of oxidative stress. Oxidative stress, inflammation, and fibrosis markers were evaluated by molecular biological techniques. All data were measured morphometrically and statistically analyzed.

A short description of data set [5]: Solubility of compound A sodium. Format: physicochemical.
Source text: Only organic solvent which are already approved by FDA for i.v. administration were used for increasing solubility of compound A. After extensive screening of several solvents, the invention disclosed an optimized solvent system for compound A, which composed of saline at pH 10.0, 25% of ethanol and 20% of propylene glycol (2%, w/w) (compound A sodium).

As to `C=C1C[C@@]23CC[C@H]4[C@@](C)(CCC[C@@]4(C)C(=O)O)[C@@H]2CC[C@]1(O)C3` (single isomer, unassigned; ent-13) [Compound B, ent-13-hydroxykaur-16-en-18-oic acid], in data set [1], the mutagenicity entry is recorded as “may be mutagenic”. Moreover, in data set [2], the “cardioprotective effect and arrhythmia” value was “cardioprotective effect”.

Consider `CC12CCC3C(CCC4C(C)(C(=O)[O-])CCCC34C)(CC1=O)C2.[Na+]` (stereo not shown) [Compound A-1Na], for which the Stimulated production of cGMP was determined as 157 ± 43% in data set [3] (1 um) and 207 ± 54% in data set [3] (10 um). Further, in data set [4], the “blood glucose level and insulin levels comparing to Diabetes group” value was “no significant changes”. The “cardiac function comparing to group B” value in data set [4] is “significantly improved”. The “solubility of sodium salt relative to compound A” value in data set [5] is reported as “better solubility”.

With `COc1ccc(CN2CCNCC2)c(OC)c1OC` [TMZ, trimetazidine, reference compound], in data set [4], the “blood glucose level and insulin levels comparing to Diabetes group” value is listed as “no significant changes”; the cardiac hypertrophy entry is “significant inhibited”; the “cardiac function comparing to group B” value was “significantly improved”.
